“And” between values parts separate entries of the source, which are not always exact repeats. Identical values can stand only once.
How the values were obtained:
Rattus norvegicus [1] = assay: In vivo Triglyceride lowering activity at dose as 0.03 % of the diet; assay type: functional
Rattus norvegicus [2] = assay: In vivo Triglyceride lowering activity at a dose of 0.10 % of the diet; assay type: functional
Rattus norvegicus [3] = assay: In vivo sterol lowering activity, dosed as 0.03 % of the diet; assay type: functional
Rattus norvegicus [4] = assay: In vivo Sterol lowering activity at dose as 0.01% of the diet; assay type: functional
Rattus norvegicus [5] = assay: In vivo sterol lowering activity at dose of 0.10 % of the diet; assay type: functional
Rattus norvegicus [6] = assay: In vivo Triglyceride lowering activity at dose as 0.01 % of the diet; assay type: functional
[7] = target: T1, Sterol O-acyltransferase 1 (Rattus norvegicus) (UniProt O70536); assay: In vitro inhibitory activity against acyl coenzyme A:cholesterol acyltransferase; parameters: concentration or dose not given beside the values; conditions: concentration not given here
T1 sequence (whole entry): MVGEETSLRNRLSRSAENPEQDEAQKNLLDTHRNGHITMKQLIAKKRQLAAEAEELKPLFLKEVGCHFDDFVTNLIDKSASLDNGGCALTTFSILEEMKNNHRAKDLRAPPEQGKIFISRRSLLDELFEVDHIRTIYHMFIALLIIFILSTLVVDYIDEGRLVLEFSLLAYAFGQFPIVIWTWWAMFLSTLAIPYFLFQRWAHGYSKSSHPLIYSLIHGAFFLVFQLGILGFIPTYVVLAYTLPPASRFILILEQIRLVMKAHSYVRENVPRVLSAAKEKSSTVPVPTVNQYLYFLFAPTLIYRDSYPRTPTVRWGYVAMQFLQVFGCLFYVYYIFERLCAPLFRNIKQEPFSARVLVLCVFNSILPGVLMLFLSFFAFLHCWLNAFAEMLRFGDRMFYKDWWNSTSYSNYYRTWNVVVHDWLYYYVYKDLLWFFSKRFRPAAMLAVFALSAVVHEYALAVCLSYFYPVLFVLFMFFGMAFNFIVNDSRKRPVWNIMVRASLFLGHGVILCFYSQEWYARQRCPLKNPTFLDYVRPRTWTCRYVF

SMILES: CC(C)(C)CCCCCCCCCCCCCCNc1ccc(C(=O)O)cc1 [listing 1 of 2 here]
- triglyceride lowering activity (Rattus norvegicus [1]): <42%
- serum triglyceride level (% of control) (Rattus norvegicus [2]): <20%
- serum sterol level, percent of control (Rattus norvegicus [3]): <53%
- serum sterol level, percent of control (Rattus norvegicus [4]): <69%
- serum sterol level, % of control (Rattus norvegicus [5]): <48%
- serum triglyceride level (% of control) (Rattus norvegicus [6]): <59%

SMILES: C[Si](C)(C)CCCNc1ccc(C(=O)O)cc1
- inhibition [7]: < 23% and 12%

SMILES: CCCCCCCCCCC(CCCCCNc1ccc(C(=O)OCC)cc1)SC(C)=O (stereo unspecified)
- serum triglyceride level (% of control) (Rattus norvegicus [2]): <46%
- inhibition [7]: < 26%
- serum sterol level, % of control (Rattus norvegicus [5]): 94%

SMILES: C[Si](C)(C)CCCCCCCCCCCCCCNc1ccc(C(=O)[O-])cc1.[Na+]
- triglyceride lowering activity (Rattus norvegicus [1]): <43%
- serum triglyceride level (% of control) (Rattus norvegicus [2]): <22%
- serum sterol level, percent of control (Rattus norvegicus [3]): <56%
- serum sterol level, percent of control (Rattus norvegicus [4]): 75%
- serum sterol level, % of control (Rattus norvegicus [5]): <39%
- serum triglyceride level (% of control) (Rattus norvegicus [6]): <55%

SMILES: O=C(O)c1ccc(NCCCCCCCCCCCCCCCC(F)(F)F)cc1
- triglyceride lowering activity (Rattus norvegicus [1]): <41%
- serum triglyceride level (% of control) (Rattus norvegicus [2]): <42%
- serum sterol level, percent of control (Rattus norvegicus [3]): <72%
- serum sterol level, percent of control (Rattus norvegicus [4]): <75%
- serum sterol level, % of control (Rattus norvegicus [5]): <61%
- serum triglyceride level (% of control) (Rattus norvegicus [6]): <46%

SMILES: COCCCCCCCCCCCCCCCCN(C(C)=O)c1ccc(C(=O)O)cc1
- serum triglyceride level (% of control) (Rattus norvegicus [2]): 93%
- inhibition [7]: < 22%
- serum sterol level, % of control (Rattus norvegicus [5]): 100%

SMILES: CCCCCCCCCCCCCCCCN(CS(=O)(=O)O)c1ccc(C(=O)O)cc1
- inhibition [7]: 7% and < 32%

SMILES: CCOC(=O)c1ccc(NC(=O)C(F)(F)C(F)(F)C(F)(F)C(F)(F)C(F)(F)C(F)(F)C(F)(F)F)cc1
- triglyceride lowering activity (Rattus norvegicus [1]): <43%
- serum sterol level, percent of control (Rattus norvegicus [3]): <73%
- inhibition [7]: 0%
- serum sterol level, percent of control (Rattus norvegicus [4]): <68%
- serum sterol level, % of control (Rattus norvegicus [5]): <69%
- serum triglyceride level (% of control) (Rattus norvegicus [6]): <61%

SMILES: CCCCCCCCCCC(C)(O)CCCCCNc1ccc(C(=O)OCC)cc1 (stereo unspecified)
- serum triglyceride level (% of control) (Rattus norvegicus [2]): <28%
- inhibition [7]: < 59%
- serum sterol level, % of control (Rattus norvegicus [5]): <82%

SMILES: CC(C)(C)CCCCCCCCCCCCCCNc1ccc(C(=O)O)cc1 [listing 2 of 2 here]
- inhibition [7]: < 74%

SMILES: COC(=O)c1ccc(NC(=O)CCCCCCCCCCOc2ccc(C(=O)OC)cc2)cc1
- serum triglyceride level (% of control) (Rattus norvegicus [2]): 118%
- inhibition [7]: < 63%
- serum sterol level, % of control (Rattus norvegicus [5]): 94%

SMILES: O=C(O)c1ccc(NCCCCCCCCCCCSc2ccc(C(=O)O)cc2)cc1
- triglyceride lowering activity (Rattus norvegicus [1]): 92%
- serum triglyceride level (% of control) (Rattus norvegicus [2]): 78%
- serum sterol level, percent of control (Rattus norvegicus [3]): 104%
- inhibition [7]: < 29%
- serum sterol level, % of control (Rattus norvegicus [5]): 98%

SMILES: C[Si](C)(C)CCCCCCCCCCCCCCNc1ccc(C(=O)O)cc1 [listing 1 of 2 here]
- triglyceride lowering activity (Rattus norvegicus [1]): <38%
- serum triglyceride level (% of control) (Rattus norvegicus [2]): <30%
- serum sterol level, percent of control (Rattus norvegicus [3]): <51%
- serum sterol level, percent of control (Rattus norvegicus [4]): <70%
- serum sterol level, % of control (Rattus norvegicus [5]): <40%
- serum triglyceride level (% of control) (Rattus norvegicus [6]): <59%

SMILES: CCCCCCCCCCC(S)CCCCCNc1ccc(C(=O)O)cc1 (stereo unspecified)
- serum triglyceride level (% of control) (Rattus norvegicus [2]): <43%
- inhibition [7]: < 79%
- serum sterol level, % of control (Rattus norvegicus [5]): 84%

SMILES: C[Si](C)(C)CCCCCCCCCCCCCCNc1ccc(C(=O)O)cc1 [listing 2 of 2 here]
- inhibition [7]: < 60%

SMILES: CCOC(=O)c1ccc(NCCCCCCCCCCCNc2ccc(C(=O)OCC)cc2)cc1
- serum triglyceride level (% of control) (Rattus norvegicus [2]): 67%
- inhibition [7]: < 68%
- serum sterol level, % of control (Rattus norvegicus [5]): 92%

SMILES: CCCCCCCCCCCCCCCC(=O)Nc1ccc(C(=O)OCC)cc1
- serum sterol level, % of control (Rattus norvegicus [5]): 91%

SMILES: CCOC(=O)c1ccc(NCCCCCCCCCCCCCCCCSCC)cc1
- serum triglyceride level (% of control) (Rattus norvegicus [2]): <58%
- inhibition [7]: < 10%
- serum sterol level, % of control (Rattus norvegicus [5]): <89%

SMILES: Br.CCOC(=O)c1ccc(NC(=O)CCCCCCCCCCSC(=N)N)cc1
- serum triglyceride level (% of control) (Rattus norvegicus [2]): 96%
- inhibition [7]: < 91%
- serum sterol level, % of control (Rattus norvegicus [5]): 92%

SMILES: O=C(O)CCCCCCCCCCCCCCCNc1ccc(C(=O)O)cc1
- inhibition [7]: 0% and 9%

SMILES: CCCCCCCCCCC(O)CCCCCNc1ccc(C(=O)O)cc1 (stereo unspecified)
- triglyceride lowering activity (Rattus norvegicus [1]): <43%
- serum triglyceride level (% of control) (Rattus norvegicus [2]): <31%
- serum sterol level, percent of control (Rattus norvegicus [3]): 96%
- serum sterol level, percent of control (Rattus norvegicus [4]): 104%
- serum sterol level, % of control (Rattus norvegicus [5]): <86%
- serum triglyceride level (% of control) (Rattus norvegicus [6]): <66%

SMILES: CCOC(=O)c1ccc(NCCCCCCCCCCCCNc2ccc(C(=O)OCC)cc2)cc1
- serum triglyceride level (% of control) (Rattus norvegicus [2]): <68%
- inhibition [7]: 2%
- serum sterol level, % of control (Rattus norvegicus [5]): 103%

SMILES: O=C([O-])CCCCCCCCCCCCCCCNc1ccc(C(=O)[O-])cc1.[Na+].[Na+]
- triglyceride lowering activity (Rattus norvegicus [1]): 97%
- serum triglyceride level (% of control) (Rattus norvegicus [2]): 132%
- serum sterol level, percent of control (Rattus norvegicus [3]): 102%
- serum sterol level, percent of control (Rattus norvegicus [4]): 102%
- serum sterol level, % of control (Rattus norvegicus [5]): 106%
- serum triglyceride level (% of control) (Rattus norvegicus [6]): 93%

SMILES: CCCCCCCCCCC(C)(O)CCCCCNc1ccc(C(=O)O)cc1 (stereo unspecified)
- serum triglyceride level (% of control) (Rattus norvegicus [2]): <37%
- inhibition [7]: < 53%
- serum sterol level, % of control (Rattus norvegicus [5]): <73%

SMILES: CCOC(=O)c1ccc(NC(=O)CCCCCCCCCCBr)cc1
- serum triglyceride level (% of control) (Rattus norvegicus [2]): 100%
- inhibition [7]: < 71%
- serum sterol level, % of control (Rattus norvegicus [5]): 115%

SMILES: C[Si](C)(C)CCCCCCCCCCCNc1ccc(C(=O)O)cc1
- inhibition [7]: < 56%

SMILES: CCOC(=O)c1ccc(NCCCCCCCCCCCOc2ccc(C(=O)OC)cc2)cc1
- serum triglyceride level (% of control) (Rattus norvegicus [2]): <72%
- inhibition [7]: < 52%
- serum sterol level, % of control (Rattus norvegicus [5]): 100%

SMILES: CCOC(=O)c1ccc(NCCCCCCCCCCCC2CCCCC2)cc1
- serum triglyceride level (% of control) (Rattus norvegicus [2]): <50%
- inhibition [7]: 12%
- serum sterol level, % of control (Rattus norvegicus [5]): 80%

SMILES: CCOC(=O)c1ccc(NCCCCCCCCCCCSc2ccc(C(=O)OCC)cc2)cc1
- serum triglyceride level (% of control) (Rattus norvegicus [2]): 132%
- inhibition [7]: < 45%
- serum sterol level, % of control (Rattus norvegicus [5]): 102%

SMILES: O=C(O)c1ccc(NCCCCCCCCCCNc2ccc(C(=O)O)cc2)cc1
- serum triglyceride level (% of control) (Rattus norvegicus [2]): 100%
- inhibition [7]: 8%
- serum sterol level, % of control (Rattus norvegicus [5]): 93%

SMILES: CCOC(=O)c1ccc(NCCCCCCCCCCCO)cc1
- serum triglyceride level (% of control) (Rattus norvegicus [2]): 93%
- inhibition [7]: < 60%
- serum sterol level, % of control (Rattus norvegicus [5]): 94%

SMILES: O=C(O)c1ccc(NCCCCCCCCCCCCNc2ccc(C(=O)O)cc2)cc1
- serum triglyceride level (% of control) (Rattus norvegicus [2]): 89%
- inhibition [7]: < 60%
- serum sterol level, % of control (Rattus norvegicus [5]): 103%

SMILES: CCCCCCCCCCC(O)CCCCCNc1ccc(C(=O)OCC)cc1 (stereo unspecified)
- serum triglyceride level (% of control) (Rattus norvegicus [2]): <39%
- inhibition [7]: < 51%
- serum sterol level, % of control (Rattus norvegicus [5]): 93%

SMILES: CCCCSCCCCCCCCCCC(=O)Nc1ccc(C(=O)OC)cc1
- serum triglyceride level (% of control) (Rattus norvegicus [2]): 81%
- inhibition [7]: < 56%
- serum sterol level, % of control (Rattus norvegicus [5]): 92%

SMILES: CCOC(=O)c1ccc(NCCCCCCCCCCCCCCCCS)cc1
- serum triglyceride level (% of control) (Rattus norvegicus [2]): <51%
- inhibition [7]: 8%
- serum sterol level, % of control (Rattus norvegicus [5]): 90%

SMILES: CCOC(=O)c1ccc(N(CCCCCCCCCCCBr)C(=O)OCc2ccccc2)cc1
- serum triglyceride level (% of control) (Rattus norvegicus [2]): 91%
- inhibition [7]: < 71%
- serum sterol level, % of control (Rattus norvegicus [5]): 100%

SMILES: O=C(O)c1ccc(N2CCCC2=O)cc1
- inhibition [7]: 0%

SMILES: CCCCOCCCCCCCCCCCNc1ccc(C(=O)O)cc1
- serum triglyceride level (% of control) (Rattus norvegicus [2]): <44%
- inhibition [7]: < 62%
- serum sterol level, percent of control (Rattus norvegicus [4]): <86%
- serum sterol level, % of control (Rattus norvegicus [5]): 91%
- serum triglyceride level (% of control) (Rattus norvegicus [6]): 74%

SMILES: CCOC(=O)c1ccc(NCCCCCCCCCCNc2ccc(C(=O)OCC)cc2)cc1
- serum triglyceride level (% of control) (Rattus norvegicus [2]): 98%
- inhibition [7]: 7%
- serum sterol level, % of control (Rattus norvegicus [5]): 140%

Reference: ChEMBL document CHEMBL1122462, “Potential antiatherosclerotic agents. 4. [(Functionalized-alkyl)amino]benzoic acid analogues of cetaben” (1983)
